Measured values published in the supplement of paper PMC10307832.

What was measured:
Test in all cases: relative viability (nuclei count vs DMSO), 5 days (fraction); higher = more cells survive
Afatinib = compound: CN(C)C/C=C/C(=O)Nc1cc2c(Nc3ccc(F)c(Cl)c3)ncnc2cc1O[C@H]1CCOC1 [Afatinib]
Summary of the method: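 Viability was defined as treated-well nuclei divided by vehicle-well nuclei, with the median taken over replicate plates. Cells from lung cancer lines sat overnight at 37 °C in 1536-well plates, received five √10-spaced library-drug doses by pinning on vehicle-anchored plates, and grew 5 days without medium change before one-step fixation, permeabilisation and Hoechst staining, 4× imaging and MetaXpress nuclear counts. Only plates with control CV under 25% and at least one doubling were kept.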

Afatinib + Foretinib = compound: CN(C)C/C=C/C(=O)Nc1cc2c(Nc3ccc(F)c(Cl)c3)ncnc2cc1O[C@H]1CCOC1 [Afatinib] + COc1cc2c(Oc3ccc(NC(=O)C4(C(=O)Nc5ccc(F)cc5)CC4)cc3F)ccnc2cc1OCCCN1CCOCC1 [Foretinib] (partner 0.25 µM)
Summary of the method: (§1)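 Relative viability equals treated-well nuclei counts divided by vehicle-well nuclei counts. Counts came from 4× images of lung cancer cell lines grown in 1536-well plates for 5 days after pin-tool dosing on the day after seeding. Dosing used one drug alone or a fixed anchor-drug dose plus five library-drug doses (not always all listed) in √10 steps, and values are medians of duplicate plates.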

Afatinib + Palbociclib = compound: CN(C)C/C=C/C(=O)Nc1cc2c(Nc3ccc(F)c(Cl)c3)ncnc2cc1O[C@H]1CCOC1 [Afatinib] + CC(=O)c1c(C)c2cnc(Nc3ccc(N4CCNCC4)cn3)nc2n(C2CCCC2)c1=O [Palbociclib] (partner 0.5 µM)
Summary of the method: as §1

Afatinib + OSI-027 = compound: CN(C)C/C=C/C(=O)Nc1cc2c(Nc3ccc(F)c(Cl)c3)ncnc2cc1O[C@H]1CCOC1 [Afatinib] + COc1cccc2cc(-c3nc([C@H]4CC[C@H](C(=O)O)CC4)n4ncnc(N)c34)[nH]c12 [OSI-027] (partner 0.5 µM)
Summary of the method: as §1

Cell Line | relative viability (Afatinib; 0.005 µM) | relative viability (Afatinib; 0.01581 µM) | relative viability (Afatinib; 0.05 µM) | relative viability (Afatinib; 0.5 µM) | relative viability (Afatinib + Foretinib; first compound 0.005 µM) | relative viability (Afatinib + Foretinib; first compound 0.01581 µM) | relative viability (Afatinib + Foretinib; first compound 0.05 µM) | relative viability (Afatinib + Foretinib; first compound 0.1581 µM) | relative viability (Afatinib + Foretinib; first compound 0.5 µM) | relative viability (Afatinib + Palbociclib; first compound 0.005 µM) | relative viability (Afatinib + Palbociclib; first compound 0.01581 µM) | relative viability (Afatinib + Palbociclib; first compound 0.05 µM) | relative viability (Afatinib + Palbociclib; first compound 0.1581 µM) | relative viability (Afatinib + Palbociclib; first compound 0.5 µM) | relative viability (Afatinib + OSI-027; first compound 0.005 µM) | relative viability (Afatinib + OSI-027; first compound 0.01581 µM) | relative viability (Afatinib + OSI-027; first compound 0.05 µM) | relative viability (Afatinib + OSI-027; first compound 0.1581 µM) | relative viability (Afatinib + OSI-027; first compound 0.5 µM) | relative viability (Afatinib; 0.1581 µM)
PC-14 | 0.371 | 0.224 | 0.298 | 0.282 | 0.45 | 0.149 | 0.184 | 0.179 | 0.183 | 0.0841 | 0.0837 | 0.079 | 0.0664 | 0.0642 | 0.103 | 0.104 | 0.136 | 0.131 | 0.0975 | –
RERF-LC-KJ | 0.92 | 0.938 | 0.908 | 0.831 | 0.844 | 0.86 | 0.82 | 0.8 | 0.794 | 1.05 | 1.02 | 0.984 | 0.85 | 0.825 | 0.527 | 0.439 | 0.448 | 0.336 | 0.318 | 0.794
SK-LU-1 | 1.07 | 1 | 1.07 | 1.06 | 0.856 | 0.833 | 0.878 | 0.764 | 0.845 | 0.355 | 0.416 | 0.413 | 0.396 | 0.4 | 0.389 | 0.415 | 0.327 | 0.318 | 0.352 | 1.05
SK-MES-1 | 0.816 | 0.706 | 0.568 | 0.42 | 0.905 | 0.552 | 0.596 | 0.372 | 0.448 | 0.305 | 0.289 | 0.306 | 0.257 | 0.257 | 0.36 | 0.405 | 0.307 | 0.265 | 0.26 | 0.39
SW 1573 | 0.978 | 0.962 | 1 | 0.925 | 0.999 | 0.924 | 0.898 | 0.861 | 0.877 | 0.451 | 0.364 | 0.404 | 0.306 | 0.362 | 0.607 | 0.516 | 0.644 | 0.541 | 0.618 | 0.962
UMC-11 | 1.03 | 0.955 | 1.03 | 0.983 | 0.992 | 1.03 | 1.08 | 1.02 | 0.996 | 0.355 | 0.325 | 0.283 | 0.308 | 0.325 | 0.469 | 0.427 | 0.462 | 0.46 | 0.456 | 0.959
